{"source": "patent US11872263B2", "about": "“AIMP1 protein fragment and hair growth-promoting composition containing same as active ingredient” (CUREBIO THERAPEUTICS, priority 2016, dated 2024)"}
{"tested_on": "dorsal hair of depilated C57BL6 mice", "test": "In vivo hair regrowth after depilation of dorsal skin of mice", "set-up": "species or system mouse", "details": "13 days after depilation, 100 nM polypeptide, 80 μl topical once a day", "description": "(§1) The hair of the dorsal skin of mice (7 weeks old male C57BL6, purchased from Orient Bio Inc.) was cut out with a clipper, and hair removal cream (Niclean, Ildong Pharmaceutical) was applied. The depilated area was about 2×2.5 cm. Mice were treated with 20% glycerol/PBS (control group), 3% Minoxidil (MNX, 140 mM), FGF7 (100 nM) or Neo-Pep of the present invention (polypeptide of SEQ ID NO: 1, 100 nM), respectively, once a day in 80 μl using brush, for 13 days (n=6 per group).\nas §1, with “Specifically, the hair” for “The hair”, “of a mouse” for “of mice”, “group). For comparative observation, the dorsal skin of the mouse was photographed before and after the beginning of the test.” for “group).”"}
{"sequence": "ADQIIEYLKQQVSLL (Homo sapiens N11 polypeptide; Neo-Pep-(13-27)) [Polypeptide N11, fragment of Neo-Pep consisting of 15 amino acids without KEKA]", "dorsal hair growth compared with control group": "didn't show such effect"}
{"sequence": "AVLKRLEQKGAEADQ (Homo sapiens N9 polypeptide; Neo-Pep-(1-15)) [Polypeptide N9, fragment of Neo-Pep consisting of 15 amino acids without KEKA]", "dorsal hair growth compared with control group": "didn't show such effect"}
{"sequence": "EADQIIEYLKQQVSL (Homo sapiens N10 polypeptide; Neo-Pep-(12-26)) [Polypeptide N10, fragment of Neo-Pep consisting of 15 amino acids without KEKA]", "dorsal hair growth compared with control group": "didn't show such effect"}
{"sequence": "IEYLKQQVSLLKEKA (Homo sapiens N12 polypeptide; Neo-Pep-(17-31)) [Polypeptide N12, fragment of Neo-Pep consisting of 15 amino acids comprising KEKA]", "dorsal hair growth compared with control group": "grew much more"}
{"sequence": "KQQVSLLKEKAILQA (Homo sapiens N13 polypeptide; Neo-Pep-(21-35)) [Polypeptide N13, fragment of Neo-Pep consisting of 15 amino acids comprising KEKA]", "dorsal hair growth compared with control group": "grew much more"}
{"sequence": "LKEKAILQATLREEK (Homo sapiens N14 polypeptide; Neo-Pep-(27-41)) [Polypeptide N14, fragment of Neo-Pep consisting of 15 amino acids comprising KEKA]", "dorsal hair growth compared with control group": "grew much more"}
{"tested_on": "CD34+ hair follicle stem cells", "test": "In vitro hair growth assay / BrdU proliferation assay with CD34+ hair follicle stem cells", "format": "cell-based, mouse", "details": "each peptide 100 nM, 24 hours", "description": "The hair of the dorsal skin of 7 weeks old male C57BL6 mice (purchased from Orient Bio Inc.) were cut with a clipper and skin tissue samples of the depilated dorsal region of the mice were collected. The collected skin tissue samples were immersed in medium using collagenase, DNase I, and hyaluronidase, and cells were isolated using Gentle MACSTM Dissociator (Miltenyi Biotec). After the cells were separated, the separated cells were incubated with a mouse CD34-Biotin antibody (Miltenyi Biotec). Cells and antibody solutions were incubated with streptavidin microbeads (Miltenyi Biotec) and then separated using LS column (Miltenyi Biotec). The separated cells were cultured in DMEM medium containing 10% FBS, 1% penicillin/streptomycin solution in humidified air of 95% 02 and 5% CO2 at 37° C.\nCell proliferation can be confirmed using the BrdU cell proliferation assay kit (Cell Signaling). Proliferation assays were performed using protocols presented by […]. Briefly, the cells were incubated with BrdU for 2 h. The primary BrdU detection antibody was incubated for 1 hour and the secondary anti-mouse IgG, HRP-conjugate antibody was incubated for 30 minutes.\nA hair growth in vitro assay was performed using the Cyquant Assay (Thermo Fisher). […]"}
{"sequence": "AEADQIIEYLKQQVSLLKEK (Homo sapiens N4 polypeptide; Neo-Pep-(11-30)) [Polypeptide N4, fragment of Neo-Pep consisting of 20 consecutive amino acids without KEKA]", "inducing proliferation of CD34+ hair follicle stem cells (relative cell number)": "didn't show any effect"}
{"sequence": "AVLKRLEQKGAEADQIIEYL (Homo sapiens N1 polypeptide; Neo-Pep-(1-20)) [Polypeptide N1, fragment of Neo-Pep consisting of 20 consecutive amino acids without KEKA]", "inducing proliferation of CD34+ hair follicle stem cells (relative cell number)": "didn't show any effect"}
{"sequence": "IEYLKQQVSLLKEKAILQAT (Homo sapiens N5 polypeptide; Neo-Pep-(17-36)) [Polypeptide N5, fragment of Neo-Pep comprising KEKA]", "inducing proliferation of CD34+ hair follicle stem cells (relative cell number)": "induced proliferation"}
{"sequence": "KGAEADQIIEYLKQQVSLLK (Homo sapiens N3 polypeptide; Neo-Pep-(9-28)) [Polypeptide N3, fragment of Neo-Pep consisting of 20 consecutive amino acids without KEKA]", "inducing proliferation of CD34+ hair follicle stem cells (relative cell number)": "didn't show any effect"}
{"sequence": "KQQVSLLKEKAILQATLREE (Homo sapiens N7 polypeptide; Neo-Pep-(21-40)) [Polypeptide N7, fragment of Neo-Pep comprising KEKA]", "inducing proliferation of CD34+ hair follicle stem cells (relative cell number)": "induced proliferation"}
{"sequence": "LKRLEQKGAEADQIIEYLKQ (Homo sapiens N2 polypeptide; Neo-Pep-(3-22)) [Polypeptide N2, fragment of Neo-Pep consisting of 20 consecutive amino acids without KEKA]", "inducing proliferation of CD34+ hair follicle stem cells (relative cell number)": "didn't show any effect"}
{"sequence": "QVSLLKEKAILQATLREEK (Homo sapiens N8 polypeptide; Neo-Pep-(23-41)) [Polypeptide N8, fragment of Neo-Pep comprising KEKA]", "inducing proliferation of CD34+ hair follicle stem cells (relative cell number)": "induced proliferation"}
{"sequence": "YLKQQVSLLKEKAILQATLR (Homo sapiens N6 polypeptide; Neo-Pep-(19-38)) [Polypeptide N6, fragment of Neo-Pep comprising KEKA]", "inducing proliferation of CD34+ hair follicle stem cells (relative cell number)": "induced proliferation"}
